Source: ChEMBL document CHEMBL4265944, “Novel amide derivatives of 1,3-dimethyl-2,6-dioxopurin-7-yl-alkylcarboxylic acids as multifunctional TRPA1 antagonists and PDE4/7 inhibitors: A new approach for the treatment of pain” (Eur J Med Chem, 2018)
Active and inactive are the calls of the source. The calls are words filed in the database; no cut-off is given here.

Columns and labels:
[1] = biological target: Transient receptor potential cation channel subfamily A member 1 (Homo sapiens) (UniProt O75762); assay: Antagonist activity at human TRPA1 expressed in HEK293 cells assessed as decrease in flufenamic acid-evoked increase in intracellular calcium level at 100 uM measured for 180 secs with 1 sec interval by Fluo4-AM dye-based fluorescence assay relative to control; type: cell-based
[2] = biological target: Transient receptor potential cation channel subfamily A member 1 (Homo sapiens) (UniProt O75762); assay: Antagonist activity at human TRPA1 expressed in HEK293 cells assessed as decrease in flufenamic acid-evoked increase in intracellular calcium level at 10 uM measured for 180 secs with 1 sec interval by Fluo4-AM dye-based fluorescence assay relative to control; type: cell-based
[3] = biological target: Transient receptor potential cation channel subfamily A member 1 (Homo sapiens) (UniProt O75762); assay: Antagonist activity at human TRPA1 expressed in HEK293 cells assessed as decrease in flufenamic acid-evoked increase in intracellular calcium level at 1 uM measured for 180 secs with 1 sec interval by Fluo4-AM dye-based fluorescence assay relative to control; type: cell-based
[4] = biological target: 3',5'-cyclic-AMP phosphodiesterase 4B (Homo sapiens, UniProt Q07343); assay: Inhibition of recombinant human PDE4B using cAMP as substrate after 10 mins by PDE-Glo Phosphodiesterase Assay
[5] = biological target: High affinity 3',5'-cyclic-AMP phosphodiesterase 7A (Homo sapiens, UniProt Q13946); assay: Inhibition of recombinant human PDE7A using cAMP as substrate after 10 mins by PDE-Glo Phosphodiesterase Assay
[6] = system: Rattus norvegicus; assay: Antiinflammatory activity in Wistar rat assessed as inhibition of LPS-induced TNF-alpha level at 50 mg/kg, ip measured at 1 hr post dose by ELISA relative to control; type: functional
[7] = system: Rattus norvegicus; assay: Antiinflammatory activity in Wistar rat assessed as inhibition of LPS-induced TNF-alpha level at 50 mg/kg, ip measured at 1.5 hrs post dose by ELISA relative to control; type: functional
[8] = system: Rattus norvegicus; assay: Antiinflammatory activity in Wistar rat assessed as inhibition of LPS-induced TNF-alpha level at 50 mg/kg, ip measured at 2 hrs post dose by ELISA relative to control; type: functional
[9] = Plasma concentration in Wistar rat model of LPS-induced inflammation at 50 mg/kg, ip measured at 1 hr post dose by HPLC method; type: ADME, organism-based
[10] = Plasma concentration in Wistar rat model of LPS-induced inflammation at 50 mg/kg, ip measured at 1.5 hrs post dose by HPLC method; type: ADME, organism-based
[11] = Plasma concentration in Wistar rat model of LPS-induced inflammation at 50 mg/kg, ip measured at 2 hrs post dose by HPLC method; type: ADME, organism-based
[12] = system: Mus musculus; assay: Antiinflammatory activity in formalin-induced nociception Swiss CD-1 mouse model assessed as time spent on licking or biting formalin injected right hind paw during neurogenic phase at 10 mg/kg, ip measured during phase 1 (reference value: 33 +/- 1.45 sec); type: functional
[13] = system: Mus musculus; assay: Antiinflammatory activity in formalin-induced nociception Swiss CD-1 mouse model assessed as time spent on licking or biting formalin injected right hind paw during neurogenic phase at 5 mg/kg, ip measured during phase 1 (reference value: 33 +/- 1.45 sec); type: functional
[14] = system: Mus musculus; assay: Antiinflammatory activity in formalin-induced nociception Swiss CD-1 mouse model assessed as time spent on licking or biting formalin injected right hind paw during neurogenic phase at 2.5 mg/kg, ip measured during phase 1 (reference value: 33 +/- 1.45 sec); type: functional
[15] = system: Mus musculus; assay: Antiinflammatory activity in formalin-induced nociception Swiss CD-1 mouse model assessed as time spent on licking or biting formalin injected right hind paw […] at 5 mg/kg, ip measured during phase 2 (reference value: 83.63 +/- 12.98 sec); type: functional
[16] = system: Mus musculus; assay: Antiinflammatory activity in formalin-induced nociception Swiss CD-1 mouse model assessed as time spent on licking or biting formalin injected right hind paw during […] phase at 2.5 mg/kg, ip measured during phase 2 (reference value: 83.63 +/- 12.98 sec); type: functional
[17] = system: Mus musculus; assay: Antiinflammatory activity in formalin-induced nociception ip dosed Swiss CD-1 mouse model assessed as time spent on licking or biting formalin injected right hind paw […] measured during phase 2; type: functional; conditions: Swiss CD-1, ip
[18] = system: Mus musculus; assay: Potency index, ratio of ED50 for HC-030031 to test compound ED50 for formalin-induced nociception ip dosed Swiss CD-1 mouse model assessed as time spent on licking or biting formalin injected right hind paw […] measured during phase 2; type: functional
[19] = system: Rattus norvegicus; assay: Anti-inflammatory activity in Wistar rat assessed as inhibition of carrageenan-induced paw edema at 20 mg/kg, ip measured at 1 hr post dose relative to control; type: functional
[20] = system: Rattus norvegicus; assay: Anti-inflammatory activity in Wistar rat assessed as inhibition of carrageenan-induced paw edema at 20 mg/kg, ip measured at 2 hrs post dose relative to control; type: functional
[21] = system: Rattus norvegicus; assay: Anti-inflammatory activity in Wistar rat assessed as inhibition of carrageenan-induced paw edema at 20 mg/kg, ip measured at 3 hrs post dose relative to control; type: functional
[22] = system: Rattus norvegicus; assay: Antiallodynic activity in Wistar rat assessed as reduction in oxaliplatin-induced neuropathic pain in early phase by measuring paw withdrawal force at 10 mg/kg, ip measured after 60 mins by Von Frey test; type: functional, organism-based
[23] = system: Rattus norvegicus; assay: Antiallodynic activity in Wistar rat assessed as reduction in oxaliplatin-induced neuropathic pain in late phase by measuring paw withdrawal latency time at 1 to 10 mg/kg, ip measured after 60 secs by cold plate test; type: functional, organism-based
[24] = system: Rattus norvegicus; assay: Antiallodynic activity in Wistar rat assessed as reduction in oxaliplatin-induced neuropathic pain in early phase by measuring paw withdrawal latency time at 1 to 10 mg/kg, ip measured after 60 secs by cold plate test; type: functional, organism-based
[25] = system: Mus musculus; assay: Antiinflammatory activity in formalin-induced nociception Swiss CD-1 mouse model assessed as time spent on licking or biting formalin injected right hind paw during neurogenic phase at 10 mg/kg, ip measured during phase 1 (reference value: 75.50 +/- 6.86 sec); type: functional
[26] = system: Mus musculus; assay: Antiinflammatory activity in formalin-induced nociception Swiss CD-1 mouse model assessed as time spent on licking or biting formalin injected right hind paw during neurogenic phase at 5 mg/kg, ip measured during phase 1 (reference value: 75.50 +/- 6.86 sec); type: functional
[27] = system: Mus musculus; assay: Antiinflammatory activity in formalin-induced nociception Swiss CD-1 mouse model assessed as time spent on licking or biting formalin injected right hind paw during neurogenic phase at 2.5 mg/kg, ip measured during phase 1 (reference value: 75.50 +/- 6.86 sec); type: functional
[28] = system: Mus musculus; assay: Antiinflammatory activity in formalin-induced nociception Swiss CD-1 mouse model assessed as time spent on licking or biting formalin injected right hind paw during […] phase at 10 mg/kg, ip measured during phase 2 (reference value: 143.60 sec); type: functional
[29] = system: Mus musculus; assay: Antiinflammatory activity in formalin-induced nociception Swiss CD-1 mouse model assessed as time spent on licking or biting formalin injected right hind paw […] at 5 mg/kg, ip measured during phase 2 (reference value: 143.60 sec); type: functional
[30] = system: Mus musculus; assay: Antiinflammatory activity in formalin-induced nociception Swiss CD-1 mouse model assessed as time spent on licking or biting formalin injected right hind paw during […] phase at 2.5 mg/kg, ip measured during phase 2 (reference value: 143.60 sec); type: functional
[31] = system: Rattus norvegicus; assay: Antiallodynic activity in Wistar rat assessed as reduction in oxaliplatin-induced neuropathic pain in early phase by measuring paw withdrawal force at 5 to 10 mg/kg, ip measured after 60 mins by Von Frey test; type: functional, organism-based
[32] = system: Rattus norvegicus; assay: Antiallodynic activity in Wistar rat assessed as reduction in oxaliplatin-induced neuropathic pain in late phase by measuring paw withdrawal force at 10 mg/kg, ip measured after 60 mins by Von Frey test; type: functional, organism-based
[33] = system: Rattus norvegicus; assay: Antiallodynic activity in Wistar rat assessed as reduction in oxaliplatin-induced neuropathic pain in early phase by measuring paw withdrawal force at 1 mg/kg, ip measured after 60 mins by Von Frey test; type: functional, organism-based
[34] = system: Rattus norvegicus; assay: Antiallodynic activity in Wistar rat assessed as reduction in oxaliplatin-induced neuropathic pain in late phase by measuring paw withdrawal latency time at 1 mg/kg, ip measured after 60 secs by cold plate test; type: functional, organism-based
[35] = system: Rattus norvegicus; assay: Antiallodynic activity in Wistar rat assessed as reduction in oxaliplatin-induced neuropathic pain in late phase by measuring paw withdrawal latency time at 5 mg/kg, ip measured after 60 secs by cold plate test; type: functional, organism-based
[36] = system: Rattus norvegicus; assay: Antiinflammatory activity in Wistar rat assessed as inhibition of LPS-induced TNF-alpha level at 50 mg/kg, ip measured at 1 to 2 hrs post dose by ELISA relative to control; type: functional

Chain of Transient receptor potential cation channel subfamily A member 1 (Homo sapiens) (O75762 whole entry): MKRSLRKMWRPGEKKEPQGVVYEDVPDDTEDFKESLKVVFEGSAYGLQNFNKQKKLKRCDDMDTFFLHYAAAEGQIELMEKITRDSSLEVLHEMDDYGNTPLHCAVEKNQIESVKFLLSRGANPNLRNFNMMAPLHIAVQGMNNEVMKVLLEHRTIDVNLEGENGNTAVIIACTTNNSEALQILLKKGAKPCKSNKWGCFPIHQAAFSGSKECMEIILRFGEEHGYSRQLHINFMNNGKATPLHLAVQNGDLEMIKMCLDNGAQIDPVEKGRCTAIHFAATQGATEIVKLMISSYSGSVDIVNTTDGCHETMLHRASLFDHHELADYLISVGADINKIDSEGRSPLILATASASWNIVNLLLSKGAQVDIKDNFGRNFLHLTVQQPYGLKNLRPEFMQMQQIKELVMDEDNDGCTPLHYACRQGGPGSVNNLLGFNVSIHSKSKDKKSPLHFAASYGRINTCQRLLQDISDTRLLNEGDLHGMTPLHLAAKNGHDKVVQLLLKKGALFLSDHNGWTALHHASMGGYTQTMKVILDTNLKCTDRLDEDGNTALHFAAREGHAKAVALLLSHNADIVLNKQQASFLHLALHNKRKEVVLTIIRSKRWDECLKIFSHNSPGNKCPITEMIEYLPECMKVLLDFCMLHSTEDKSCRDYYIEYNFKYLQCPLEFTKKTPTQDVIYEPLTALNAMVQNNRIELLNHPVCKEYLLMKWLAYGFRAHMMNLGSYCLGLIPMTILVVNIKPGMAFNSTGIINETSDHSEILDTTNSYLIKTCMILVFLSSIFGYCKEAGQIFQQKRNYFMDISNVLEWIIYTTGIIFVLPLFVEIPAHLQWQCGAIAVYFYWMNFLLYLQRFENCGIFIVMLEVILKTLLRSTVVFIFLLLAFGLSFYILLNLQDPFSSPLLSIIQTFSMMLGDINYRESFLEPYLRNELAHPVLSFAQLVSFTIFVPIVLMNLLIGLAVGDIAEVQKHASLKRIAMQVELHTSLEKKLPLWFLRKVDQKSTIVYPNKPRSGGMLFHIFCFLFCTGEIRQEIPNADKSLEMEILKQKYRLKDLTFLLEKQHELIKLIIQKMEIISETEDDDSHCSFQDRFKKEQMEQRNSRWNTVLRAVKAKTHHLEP
Chain of 3',5'-cyclic-AMP phosphodiesterase 4B (Q07343 whole entry): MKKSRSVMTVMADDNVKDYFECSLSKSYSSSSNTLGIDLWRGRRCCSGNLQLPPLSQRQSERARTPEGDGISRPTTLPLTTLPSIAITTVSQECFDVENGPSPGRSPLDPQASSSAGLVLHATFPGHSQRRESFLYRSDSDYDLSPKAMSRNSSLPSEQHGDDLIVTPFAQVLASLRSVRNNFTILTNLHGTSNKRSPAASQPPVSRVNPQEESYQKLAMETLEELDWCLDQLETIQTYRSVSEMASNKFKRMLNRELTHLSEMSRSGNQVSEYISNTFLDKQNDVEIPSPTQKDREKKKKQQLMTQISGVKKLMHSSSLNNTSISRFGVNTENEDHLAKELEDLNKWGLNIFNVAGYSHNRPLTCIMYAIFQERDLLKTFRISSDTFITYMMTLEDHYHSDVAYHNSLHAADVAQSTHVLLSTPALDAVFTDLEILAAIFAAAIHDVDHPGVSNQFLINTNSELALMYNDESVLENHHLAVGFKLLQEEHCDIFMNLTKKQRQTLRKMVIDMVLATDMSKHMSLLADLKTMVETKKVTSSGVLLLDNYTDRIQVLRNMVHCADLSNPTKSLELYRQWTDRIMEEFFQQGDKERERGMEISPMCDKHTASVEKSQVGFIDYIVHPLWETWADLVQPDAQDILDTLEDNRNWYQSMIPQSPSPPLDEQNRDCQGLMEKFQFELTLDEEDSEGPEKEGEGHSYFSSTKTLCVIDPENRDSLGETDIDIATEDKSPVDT
Chain of High affinity 3',5'-cyclic-AMP phosphodiesterase 7A (Q13946 whole entry): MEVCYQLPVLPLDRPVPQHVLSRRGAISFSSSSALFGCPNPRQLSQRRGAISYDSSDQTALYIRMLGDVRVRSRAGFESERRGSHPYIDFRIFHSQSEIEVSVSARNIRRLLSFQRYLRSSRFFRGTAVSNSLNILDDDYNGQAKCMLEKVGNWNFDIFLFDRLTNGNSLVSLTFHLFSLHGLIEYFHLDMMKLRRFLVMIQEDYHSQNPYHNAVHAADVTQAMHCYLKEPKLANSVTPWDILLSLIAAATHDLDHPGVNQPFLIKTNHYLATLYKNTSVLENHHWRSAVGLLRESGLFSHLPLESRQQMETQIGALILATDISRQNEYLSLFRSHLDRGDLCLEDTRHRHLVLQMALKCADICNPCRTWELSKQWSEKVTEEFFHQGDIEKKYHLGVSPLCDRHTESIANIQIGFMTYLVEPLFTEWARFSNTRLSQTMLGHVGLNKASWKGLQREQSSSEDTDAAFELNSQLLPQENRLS

inhibition [1]	inhibition [2]	inhibition [3]	IC50 [4]	IC50 [5]	concentration at 1 h [9]	concentration at 1.5 h [10]	concentration at 2 h [11]	Compound	ED50 [17]	Ratio ED50 [18]	inhibition in vivo at 20 mg/kg [19]	inhibition in vivo at 20 mg/kg [20]	inhibition in vivo at 20 mg/kg [21]	other results
39%	7%	6%	5.43 µM	5.07 µM	1980 nM	740 nM	290 nM	CCCCOc1nc2c(c(=O)n(C)c(=O)n2C)n1CCCC(=O)Nc1cc(C(C)(C)C)ccc1O	3.44 mg/kg	10 - 13	48%	79.7%	33.5%	inhibition in vivo at 50 mg/kg [6]: 85.4%; inhibition in vivo at 50 mg/kg [7]: 90.2%; inhibition in vivo at 50 mg/kg [8]: 92%; Time [12]: 21.33 s; Time [13]: 25.17 s; Time [14]: 32 s; Time [15]: 49.17 s; Time [16]: 47.67 s; Activity [22]: Active; Activity [23]: Active; Activity [24]: Active
53%	40%	40%	> 200 µM	> 200 µM	2680 nM	2330 nM	1950 nM	COc1nc2c(c(=O)n(C)c(=O)n2C)n1CC(=O)Nc1ccc(C(C)(C)C)cc1	2.49 mg/kg	10 - 13	37.1%	18.7%	30.6%	Time [25]: 65.17 s; Time [26]: 86.33 s; Time [27]: 69 s; Time [28]: 31.67 s; Time [29]: 48 s; Time [30]: 72.6 s; Activity [31]: Active; Activity [32]: Active; Activity [33]: inactive; Activity [34]: Active; Activity [35]: Active; inhibition in vivo at 50 mg/kg [36]: 33 to 44%
